Read-outs that look alike come from different tables or passages of the source.
Columns and labels:
[1] = system: Sphaerotheca fuliginea; experiment: Example L: in vivo test on Sphaerotheca fuliginea (powdery mildew on cucumber/protective); details: Podosphaera fuliginea, 168 h, cucumber, protective, assessment 7 days after inoculation, read-out: % Wirkungsgrad
Description: (§1) Solvent: 49 parts by weight N,N-dimethylformamide Emulsifier: 1 part by weight alkylaryl polyglycol ethers For the preparation of a suitable active substance preparation, 1 part by weight of active substance is mixed with the stated quantities of solvent and emulsifier and the concentrate is diluted to the desired concentration with water. For the testing for protective activity, young cucumber plants are sprayed with the active substance preparation at the stated application dosage. One day after the treatment, the plants are inoculated with a spore suspension of Sphaerotheca fuliginea. Next, the plants are placed in a greenhouse at 70% relative atmospheric humidity and a temperature of 23° C. 7 days after the inoculation, the assessment takes place.

[2] = system: Alternaria solani; experiment: Example M: in vivo test on Alternaria solani (leaf blotch disease/tomato/protective); details: 168 h, tomato, protective, 500 ppm active substance, assessed 7 days after inoculation, read-out: % Wirkungsgrad (activity level)
Description: as §1, with “tomato” for “cucumber”, “One day after the treatment, the plants are inoculated with a spore suspension of Sphaerotheca fuliginea. Next, the plants are placed in a greenhouse at 70% relative atmospheric humidity and a temperature of 23° C.” left out

[3] = physchem
[4] = system: Fusarium graminearum; experiment: microbe, parasite or virus in culture; assay type: cell-based
[5] = 72 h, read-out: % Inhibition des Pilzwachstums bei 50 μM
[6] = 168 h, read-out: % Inhibition der DON/AcDON produktion bei 50 μM
[7] = LogPA (logP of the stated pure compound or, in a mixture, of the main isomer, 1-substituted 3-aryl-1H-pyrazole)

Cn1cc(-c2ccnc(NC(=O)C3CCC3)c2)c(-c2ccc(F)cc2)n1 [Compound 349]
pest or weed control at 500 ppm [1]: 95%
pest or weed control at 500 ppm [2]: 80%
chromatographic logP ([3]; LogPA): 1.93

CCC(=O)Nc1cc(-c2cn(C(C(=O)OC)C(C)C)nc2-c2ccc(F)cc2)ccn1 (centres unmarked) [Compound 274]
pest or weed control at 500 ppm [1]: 94%
pest or weed control at 500 ppm [2]: 95%
chromatographic logP ([3]; LogPA): 2.67

CC(C)C(=O)Nc1cc(-c2cn(C(C)C3CC3)nc2-c2ccc(F)cc2)ccn1 (centres unmarked) [Compound 307]
pest or weed control at 500 ppm [1]: 100%
pest or weed control at 500 ppm [2]: 100%
chromatographic logP ([3]; LogPA): 2.9

O=C(Nc1cc(-c2cn(Cc3ccccc3F)nc2-c2ccc(F)cc2)ccn1)C1CC1 [Compound 262]
inhibition at 50 µM [4, 5]: 35%
inhibition at 50 µM [4, 6]: 99%
pest or weed control at 500 ppm [2]: 95%
chromatographic logP ([3]; LogPA): 2.77

CCCn1cc(-c2ccnc(NC(=O)C(C)C)c2)c(-c2ccc(F)cc2)n1 [Compound 294]
pest or weed control at 500 ppm [1]: 98%
pest or weed control at 500 ppm [2]: 100%
chromatographic logP ([3]; LogPA): 2.49

CCn1cc(-c2ccnc(NC(=O)CC(C)C)c2)c(-c2ccc(F)cc2)n1 [Compound 339]
pest or weed control at 500 ppm [1]: 95%
pest or weed control at 500 ppm [2]: 95%
chromatographic logP ([3]; LogPA): 3.47

COCC(C)Nc1nccc(-c2cn(CC(C)C)nc2-c2ccc(F)cc2)n1 (centres unmarked) [Compound 285]
pest or weed control at 500 ppm [1]: 89%
pest or weed control at 500 ppm [2]: 95%
chromatographic logP ([3]; LogPA): 2.39

Cc1cn(-c2cc(-c3cn(C(C)C)nc3-c3ccc(F)cc3)ccn2)cn1 [Compound 283]
pest or weed control at 500 ppm [1]: 78%
pest or weed control at 500 ppm [2]: 95%
chromatographic logP ([3]; LogPA): 2.05

CC(C)C(=O)Nc1cc(-c2cn(C(C)CC#N)nc2-c2ccc(F)cc2)ccn1 (centres unmarked) [Compound 314]
pest or weed control at 500 ppm [1]: 100%
pest or weed control at 500 ppm [2]: 100%
chromatographic logP ([3]; LogPA): 1.29

CCn1cc(-c2ccnc(NC(=O)C(C)C)c2)c(-c2ccc(F)cc2)n1 [Compound 290]
pest or weed control at 500 ppm [1]: 100%
pest or weed control at 500 ppm [2]: 100%
chromatographic logP ([3]; LogPA): 2.14

CCn1cc(-c2ccnc(NC(=O)[C@H](C)O)c2)c(-c2ccc(F)cc2)n1 [Compound 352]
pest or weed control at 500 ppm [1]: 73%
pest or weed control at 500 ppm [2]: 95%
chromatographic logP ([3]; LogPA): 1.83

CCn1cc(-c2ccnc(NC(=O)c3snnc3C)c2)c(-c2ccc(F)cc2)n1 [Compound 335]
pest or weed control at 500 ppm [1]: 74%
chromatographic logP ([3]; LogPA): 2.72

COCC(=O)Nc1cc(-c2cn(CC(C)C)nc2-c2ccc(F)c(C#N)c2)ccn1 [Compound 246]
inhibition at 50 µM [4, 5]: 88%
inhibition at 50 µM [4, 6]: 99%
chromatographic logP ([3]; LogPA): 2.98

CCC(C)C(=O)Nc1cc(-c2cn(CC)nc2-c2ccc(F)cc2)ccn1 (centres unmarked) [Compound 340]
pest or weed control at 500 ppm [1]: 95%
pest or weed control at 500 ppm [2]: 95%
chromatographic logP ([3]; LogPA): 2.42

CC(C)Cn1cc(-c2ccnc(NC3CC3)n2)c(-c2ccc(F)cc2)n1 [Compound 281]
pest or weed control at 500 ppm [1]: 94%
pest or weed control at 500 ppm [2]: 95%
chromatographic logP ([3]; LogPA): 2.41

CC(C)C(=O)Nc1cc(-c2cn(C)nc2-c2ccc(F)cc2)ccn1 [Compound 298]
pest or weed control at 500 ppm [1]: 100%
pest or weed control at 500 ppm [2]: 80%
chromatographic logP ([3]; LogPA): 1.83

CCC(C)C(=O)Nc1cc(-c2cn(C)nc2-c2ccc(F)cc2)ccn1 (centres unmarked) [Compound 348]
pest or weed control at 500 ppm [1]: 95%
pest or weed control at 500 ppm [2]: 95%
chromatographic logP ([3]; LogPA): 2.14

Cn1cc(-c2ccnc(NC(=O)c3ccccc3)c2)c(-c2ccc(F)cc2)n1 [Compound 346]
pest or weed control at 500 ppm [1]: 95%
chromatographic logP ([3]; LogPA): 2.42

COCC(=O)Nc1cc(-c2cn(Cc3ccccc3F)nc2-c2ccc(F)cc2)ccn1 [Compound 247]
inhibition at 50 µM [4, 5]: 96%
inhibition at 50 µM [4, 6]: 99%
pest or weed control at 500 ppm [2]: 94%
chromatographic logP ([3]; LogPA): 3.09

CC(C)n1cc(-c2ccnc(NC(C)C(F)(F)F)c2)c(-c2ccc(F)cc2)n1 (centres unmarked) [Compound 318]
pest or weed control at 500 ppm [2]: 80%
chromatographic logP ([3]; LogPA): 2.26

CC(Nc1cc(-c2cn(C)nc2-c2ccc(F)cc2)ccn1)C(F)(F)F (centres unmarked) [Compound 319]
pest or weed control at 500 ppm [2]: 90%
chromatographic logP ([3]; LogPA): 1.73

C#CCNc1nccc(-c2c[nH]nc2-c2ccc(F)cc2)n1 [Compound 173]
pest or weed control at 500 ppm [2]: 94%
chromatographic logP ([3]; LogPA): 1.44

CCOCCn1cc(-c2ccnc(NC(=O)COC)c2)c(-c2ccc(F)cc2)n1 [Compound 327]
inhibition at 50 µM [4, 5]: 105%
inhibition at 50 µM [4, 6]: 100%
pest or weed control at 500 ppm [2]: 95%
chromatographic logP ([3]; LogPA): 2.38

CC(C)Cn1cc(-c2ccnc(NC(=O)C3CC3)c2)c(-c2ccc(F)c(C#N)c2)n1 [Compound 261]
inhibition at 50 µM [4, 5]: 39%
inhibition at 50 µM [4, 6]: 99%
chromatographic logP ([3]; LogPA): 2.77

CCC(=O)Nc1cc(-c2cn(CC(C)C)nc2-c2ccc(F)c(C#N)c2)ccn1 [Compound 230]
inhibition at 50 µM [4, 5]: 0%
inhibition at 50 µM [4, 6]: 97%
chromatographic logP ([3]; LogPA): 2.67

CCOC(=O)Cn1cc(-c2ccncc2)c(-c2ccc(F)cc2)n1 [Compound 170]
pest or weed control at 500 ppm [2]: 78%
chromatographic logP ([3]; LogPA): 1.31

O=C(Nc1cc(-c2cn(CC(F)F)nc2-c2ccc(F)cc2)ccn1)c1ccsc1 [Compound 235]
pest or weed control at 500 ppm [2]: 94%
chromatographic logP ([3]; LogPA): 2.69

CC(C)Cn1cc(-c2ccnc(NC(=O)C(C)C)c2)c(-c2ccc(F)c(C#N)c2)n1 [Compound 255]
inhibition at 50 µM [4, 5]: 0%
inhibition at 50 µM [4, 6]: 96%
chromatographic logP ([3]; LogPA): 3.03

CCC(=O)Nc1nccc(-c2cn(CC(C)C)nc2-c2ccc(F)cc2)n1 [Compound 365]
pest or weed control at 500 ppm [2]: 80%
chromatographic logP ([3]; LogPA): 2.7

Fc1ccc(-c2nn(CC3OCCO3)cc2-c2ccncc2)cc1 [Compound 275]
pest or weed control at 500 ppm [2]: 90%
chromatographic logP ([3]; LogPA): 1.02

CC(C)On1cc(-c2ccncc2)c(-c2ccc(F)cc2)n1 [Compound 227]
inhibition at 50 µM [4, 5]: 100%
inhibition at 50 µM [4, 6]: 100%
pest or weed control at 500 ppm [2]: 95%
chromatographic logP ([3]; LogPA): 1.58

CCNC(=O)Nc1cc(-c2cn(CC(F)F)nc2-c2ccc(F)cc2)ccn1 [Compound 231]
pest or weed control at 500 ppm [2]: 95%
chromatographic logP ([3]; LogPA): 1.91

CC(C)Cn1cc(-c2ccnc(NC(=O)CC3CC3)c2)c(-c2ccc(F)c(C#N)c2)n1 [Compound 252]
inhibition at 50 µM [4, 5]: 0%
inhibition at 50 µM [4, 6]: 99%
chromatographic logP ([3]; LogPA): 3.14

CCn1cc(-c2ccnc(NC(=O)CCCC(=O)OC)c2)c(-c2ccc(F)cc2)n1 [Compound 331]
pest or weed control at 500 ppm [1]: 94%
chromatographic logP ([3]; LogPA): 2.02

O=C(Nc1cc(-c2cn(OC3CCCC3)nc2-c2ccc(F)cc2)ccn1)C1CC1 [Compound 269]
pest or weed control at 500 ppm [2]: 89%
chromatographic logP ([3]; LogPA): 3.35

O=C1OCCC1n1cc(-c2ccncc2)c(-c2ccc(F)cc2)n1 (centres unmarked) [Compound 142]
inhibition at 50 µM [4, 5]: 0%
inhibition at 50 µM [4, 6]: 89%
pest or weed control at 500 ppm [2]: 94%
chromatographic logP [3, 7]: 0.95

CC(Nc1cc(-c2cn(CC3CC3)nc2-c2ccc(F)cc2)ccn1)C(F)(F)F (centres unmarked) [Compound 317]
pest or weed control at 500 ppm [2]: 70%
chromatographic logP ([3]; LogPA): 2.33

Fc1ccc(-c2nn(Cc3ccccc3-c3ccccc3)cc2-c2ccncc2)cc1 [Compound 135]
pest or weed control at 500 ppm [2]: 78%
chromatographic logP [3, 7]: 2.34

CC(C)C(=O)Nc1cc(-c2c(-c3ccc(F)cc3O)nn(C)c2OC(F)F)ccn1 [Compound 257]
inhibition at 50 µM [4, 5]: 0%
inhibition at 50 µM [4, 6]: 94%
pest or weed control at 500 ppm [2]: 94%
chromatographic logP ([3]; LogPA): 2.44

C[C@H](O)C(=O)Nc1cc(-c2cn(C)nc2-c2ccc(F)cc2)ccn1 [Compound 353]
pest or weed control at 500 ppm [2]: 80%
chromatographic logP ([3]; LogPA): 1.57

CCOC(=O)Nc1cc(-c2cn(CC(C)C)nc2-c2ccc(F)c(C#N)c2)ccn1 [Compound 265]
inhibition at 50 µM [4, 5]: 9%
inhibition at 50 µM [4, 6]: 98%
chromatographic logP ([3]; LogPA): 3.19

CC(C)Nc1nccc(-c2cn(C)nc2-c2ccc(F)cc2)n1 [Compound 361]
pest or weed control at 500 ppm [2]: 70%
chromatographic logP ([3]; LogPA): 1.65

CC(C)Cn1cc(-c2ccncc2)c(-c2ccc(F)c(C#N)c2)n1 [Compound 154]
inhibition at 50 µM [4, 5]: 0%
inhibition at 50 µM [4, 6]: 93%
chromatographic logP [3, 7]: 1.65

CC(C)=CCn1ncc(-c2ccncc2)c1-c1ccc(F)cc1 [Compound 25]
pest or weed control at 500 ppm [2]: 90%
chromatographic logP [3, 7]: 2.68

C#CCn1cc(-c2ccnc(NC(C)C)n2)c(-c2ccc(F)cc2)n1 [Compound 363]
pest or weed control at 500 ppm [2]: 90%
chromatographic logP ([3]; LogPA): 1.99

Cc1cc(C(=O)Cn2cc(-c3ccncc3)c(-c3ccc(F)cc3)n2)nn1C [Compound 144]
pest or weed control at 500 ppm [2]: 94%
chromatographic logP [3, 7]: 1.31

CCC(=O)Nc1cc(-c2cn(C(C)c3ccccc3F)nc2-c2ccc(F)cc2)ccn1 (centres unmarked) [Compound 248]
pest or weed control at 500 ppm [2]: 94%
chromatographic logP ([3]; LogPA): 3.03

COCC(=O)Nc1cc(-c2cn(C3CC3)nc2-c2ccc(F)cc2)ccn1 [Compound 321]
pest or weed control at 500 ppm [2]: 70%
chromatographic logP ([3]; LogPA): 2.37

Cc1cc(-c2cn(C3CCCCO3)nc2-c2ccc(F)cc2)ccn1 (centres unmarked) [Compound 31]
pest or weed control at 500 ppm [1]: 70%
chromatographic logP [3, 7]: 1.38

Reference: patent US20110183978A1, “Phenylpyri(mi)dinylazoles” (Bayer CropScience AG, priority 2009, published 2011)
